Measurements published in patent US4740233A, “Substituted 1,2,4-triazolo[1,5-a]-pyrimidine-2-sulfonamides and compositions and methods of controlling undesired vegetation and suppressing the nitrification of ammonium nitrogen in soil” (The Dow Chemical Company, priority 1986, dated 1988).

Legend:
[1] = test system: cotton; test: Preemergent control of plant species; type: in vivo, Gossypium spp.; conditions: Gossypium hirsutum, pre-emergence, 336 h; 0.25 lb/acre; read-out: percent preemergent control
How it was run: (§1)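 Seeds sown in agricultural soil in greenhouse beds, then aqueous-emulsion compositions applied uniformly to the bed surface at listed rates. Beds kept two weeks under greenhouse growth conditions with watering. Control expressed as growth reduction versus water-treated beds of the same species.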

[2] = test system: rape; test: Preemergent control of plant species; type: in vivo, Brassica napus; conditions: Brassica napus, pre-emergence, 336 h; 0.25 lb/acre; read-out: percent preemergent control
How it was run: as §1

[3] = test system: soybean; test: Preemergent control of plant species; type: in vivo, Glycine max.; conditions: Glycine max, pre-emergence, 336 h; 0.25 lb/acre; read-out: percent preemergent control
How it was run: as §1

[4] = test system: sugar beet; test: Preemergent control of plant species; type: in vivo, Beta saccharifera; conditions: Beta vulgaris, pre-emergence, 336 h; 0.25 lb/acre; read-out: percent preemergent control
How it was run: as §1

[5] = test system: jimsonweed; test: Preemergent control of plant species; type: in vivo, Datura stramonium; conditions: Datura stramonium, pre-emergence, 336 h; 0.25 lb/acre; read-out: percent preemergent control
How it was run: as §1

[6] = test system: annual morning glory; test: Preemergent control of plant species; type: in vivo, Ipomoea spp.; conditions: Ipomoea, pre-emergence, 336 h; 0.25 lb/acre; read-out: percent preemergent control
How it was run: as §1

[7] = test system: velvetleaf; test: Preemergent control of plant species; type: in vivo, Abutilon theophrasti; conditions: Abutilon theophrasti, pre-emergence, 336 h; 0.25 lb/acre; read-out: percent preemergent control
How it was run: as §1

[8] = test system: corn; test: Preemergent control of plant species; type: in vivo, Zea mays; conditions: Zea mays, pre-emergence, 336 h; 0.25 lb/acre; read-out: percent preemergent control
How it was run: as §1

[9] = test system: rice; test: Preemergent control of plant species; type: in vivo, Oryza sativa; conditions: Oryza sativa, pre-emergence, 336 h; 0.25 lb/acre; read-out: percent preemergent control
How it was run: as §1

[10] = test system: sorghum; test: Preemergent control of plant species; type: in vivo, Sorghum vulgare; conditions: Sorghum, pre-emergence, 336 h; 0.25 lb/acre; read-out: percent preemergent control
How it was run: as §1

[11] = test system: wheat; test: Preemergent control of plant species; type: in vivo, Triticum aestivum; conditions: Triticum aestivum, pre-emergence, 336 h; 0.25 lb/acre; read-out: percent preemergent control
How it was run: as §1

[12] = test system: barnyardgrass; test: Preemergent control of plant species; type: in vivo, Echinochloa crusgalli; conditions: Echinochloa crus-galli, pre-emergence, 336 h; 0.25 lb/acre; read-out: percent preemergent control
How it was run: as §1

[13] = test system: johnson grass; test: Preemergent control of plant species; type: in vivo, Sorghum halepense; conditions: Sorghum halepense, pre-emergence, 336 h; 0.25 lb/acre; read-out: percent preemergent control
How it was run: as §1

[14] = test system: wild oats; test: Preemergent control of plant species; type: in vivo; conditions: Avena fatua, pre-emergence, 336 h; 0.25 lb/acre; read-out: percent preemergent control
How it was run: as §1

[15] = test system: yellow foxtail; test: Preemergent control of plant species; type: in vivo, Setaria lutescens; conditions: Setaria, pre-emergence, 336 h; 0.25 lb/acre; read-out: percent preemergent control
How it was run: as §1

[16] = test system: yellow nutsedge; test: Preemergent control of plant species; type: in vivo, Cyperus esculentus; conditions: Cyperus, pre-emergence, 336 h; 0.25 lb/acre; read-out: percent preemergent control
How it was run: as §1

[17] = test system: nitrification of ammonium nitrogen; test: Suppression of nitrification of ammonium nitrogen in soil; conditions: 27° C.
How it was run: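 Soil (20 g) moistened to its 1/3 bar tension value, mixed with test chemical and incubated sealed for two weeks at 27° C. Nitrate extracted with ammonium sulfate solution and measured by nitrate-specific ion electrode; value given as % NH4-N remaining.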

[18] = test system: cotton; test: Postemergent control of plant species; type: in vivo, Gossypium spp.; conditions: Gossypium hirsutum, post-emergence, 336 h, read-out: percent postemergent control
Procedure: (§2) In representative operations, each compound to be utilized in a series of tests is dissolved in acetone to one-half of the final volume (twice the final concentration) to be used and the acetone solution in each case is admixed with an equal volume of water containing 0.1 percent by weight of surface active material. The compositions, generally in the nature of an emulsion, were employed to spray separate respective plant species which had been grown to a 2-4 leaf stage in soil of good nutrient content in a greenhouse. The various beds were positioned side by side and exposed to substantially identical conditions of temperature and light. Each bed was maintained so as to prevent any interaction with test compounds in different seed beds. Other plants were left untreated to serve as controls. After treatment, the plants were maintained for about two weeks under greenhouse conditions conducive for good plant growth and watered as necessary. Control refers to the reduction in growth compared to the observed results of the same untreated species.

[19] = test system: rape; test: Postemergent control of plant species; type: in vivo, Brassica napus; conditions: Brassica napus, post-emergence, 336 h, read-out: percent postemergent control
Procedure: as §2

[20] = test system: soybean; test: Postemergent control of plant species; type: in vivo, Glycine max.; conditions: Glycine max, post-emergence, 336 h, read-out: percent postemergent control
Procedure: as §2

[21] = test system: sugar beet; test: Postemergent control of plant species; type: in vivo, Beta saccharifera; conditions: Beta vulgaris, post-emergence, 336 h, read-out: percent postemergent control
Procedure: as §2

[22] = test system: jimsonweed; test: Postemergent control of plant species; type: in vivo, Datura stramonium; conditions: Datura stramonium, post-emergence, 336 h, read-out: percent postemergent control
Procedure: as §2

[23] = test system: annual morning glory; test: Postemergent control of plant species; type: in vivo, Ipomoea spp.; conditions: Ipomoea, post-emergence, 336 h, read-out: percent postemergent control
Procedure: as §2

[24] = test system: pigweed; test: Postemergent control of plant species; type: in vivo, Amaranthus spp.; conditions: Amaranthus retroflexus, post-emergence, 336 h, read-out: percent postemergent control
Procedure: as §2

[25] = test system: velvetleaf; test: Postemergent control of plant species; type: in vivo, Abutilon theophrasti; conditions: Abutilon theophrasti, post-emergence, 336 h, read-out: percent postemergent control
Procedure: as §2

[26] = test system: corn; test: Postemergent control of plant species; type: in vivo, Zea mays; conditions: Zea mays, post-emergence, 336 h, read-out: percent postemergent control
Procedure: as §2

[27] = test system: rice; test: Postemergent control of plant species; type: in vivo, Oryza sativa; conditions: Oryza sativa, post-emergence, 336 h, read-out: percent postemergent control
Procedure: as §2

[28] = test system: sorghum; test: Postemergent control of plant species; type: in vivo, Sorghum vulgare; conditions: Sorghum, post-emergence, 336 h, read-out: percent postemergent control
Procedure: as §2

[29] = test system: wheat; test: Postemergent control of plant species; type: in vivo, Triticum aestivum; conditions: Triticum aestivum, post-emergence, 336 h, read-out: percent postemergent control
Procedure: as §2

[30] = test system: barnyardgrass; test: Postemergent control of plant species; type: in vivo, Echinochloa crusgalli; conditions: Echinochloa crus-galli, post-emergence, 336 h, read-out: percent postemergent control
Procedure: as §2

[31] = test system: crabgrass; test: Postemergent control of plant species; type: in vivo, Digitaria spp.; conditions: Digitaria sanguinalis, post-emergence, 336 h, read-out: percent postemergent control
Procedure: as §2

[32] = test system: yellow foxtail; test: Postemergent control of plant species; type: in vivo, Setaria lutescens; conditions: Setaria, post-emergence, 336 h, read-out: percent postemergent control
Procedure: as §2

[33] = test system: johnson grass; test: Postemergent control of plant species; type: in vivo, Sorghum halepense; conditions: Sorghum halepense, post-emergence, 336 h, read-out: percent postemergent control
Procedure: as §2

[34] = test system: wild oats; test: Postemergent control of plant species; type: in vivo, Avena fatua; conditions: Avena fatua, post-emergence, 336 h, read-out: percent postemergent control
Procedure: as §2

[35] = test system: yellow nutsedge; test: Postemergent control of plant species; type: in vivo, Cyperus esculentus; conditions: Cyperus, post-emergence, 336 h, read-out: percent postemergent control
Procedure: as §2

SMILES | plant injury at 280.212 g/ha [1] | plant injury at 280.212 g/ha [2] | plant injury at 280.212 g/ha [3] | plant injury at 280.212 g/ha [4] | pest or weed control at 280.212 g/ha [5] | pest or weed control at 280.212 g/ha [6] | pest or weed control at 280.212 g/ha [7] | plant injury at 280.212 g/ha [8] | plant injury at 280.212 g/ha [9] | plant injury at 280.212 g/ha [10] | plant injury at 280.212 g/ha [11] | pest or weed control at 280.212 g/ha [12] | pest or weed control at 280.212 g/ha [13] | pest or weed control at 280.212 g/ha [14] | pest or weed control at 280.212 g/ha [15] | pest or weed control at 280.212 g/ha [16] | % NH4-N Remaining After 2 Weeks Incubation ([17]; 0.06 ppm) | % NH4-N Remaining After 2 Weeks Incubation ([17]; 0.25 ppm) | % NH4-N Remaining After 2 Weeks Incubation ([17]; 1 ppm) | % NH4-N Remaining After 2 Weeks Incubation ([17]; 4 ppm) | other results
C=CCOC(=O)c1cccc(C)c1NS(=O)(=O)c1nc2nc(C)cc(C)n2n1 [Compound 76] | 60% | 100% | 95% | 100% | 100% | 90% | 100% | 100% | 70% | 90% | 100% | 70% | 80% | 90% | 90% | 100% | 34% | 52% | 74% | 86% | 
Cc1cc(C)n2nc(S(=O)(=O)N(C)c3c(Cl)cccc3Cl)nc2n1 [Compound 260, 5,7,N-trimethyl-N-(2,6-dichlorophenyl)-1,2,4-triazolo[1,5-a]pyrimidine-2-sulfonamide] |  |  |  |  |  |  |  |  |  |  |  |  |  |  |  |  | 0% | 14% | 37% | 45% | plant injury at 500 ppm [18]: 80%; plant injury at 500 ppm [19]: 95%; plant injury at 500 ppm [20]: 90%; plant injury at 500 ppm [21]: 100%; pest or weed control at 500 ppm [22]: 95%; pest or weed control at 500 ppm [23]: 40%; pest or weed control at 500 ppm [24]: 45%; pest or weed control at 500 ppm [25]: 90%; plant injury at 500 ppm [26]: 0%; plant injury at 500 ppm [27]: 0%; plant injury at 500 ppm [28]: 25%; plant injury at 500 ppm [29]: 0%; pest or weed control at 500 ppm [30]: 50%; pest or weed control at 500 ppm [31]: 0%; pest or weed control at 500 ppm [32]: 90%; pest or weed control at 500 ppm [33]: 95%; pest or weed control at 500 ppm [34]: 0%; pest or weed control at 500 ppm [35]: 0%
COc1ccn2nc(S(=O)(=O)Nc3c(Cl)cccc3Cl)nc2n1 [Compound 208] | 100% | 100% | 45% | 100% | 90% | 40% | 90% | 0% | 0% | 30% | 0% | 0% | 0% | 0% | 0% | 60% | 38% | 38% | 42% | 37% | 
